From patent publication US5710150A, “Benzazepine derivative, pharmaceutical composition thereof, and intermediate thereof” (Yamanouchi Pharmaceutical Co., Ltd., priority 1993, dated 1998)
Counter-ions that a name gives are not always drawn. Like-named read-outs stand apart in the source and are kept apart here.

Key:
[1] = target: T1, arginine vasopressin V1 receptor (Rattus norvegicus, UniProt P30560); experiment: V1 receptor binding assay ([3H]-Arg-vasopressin, rat liver membrane); conditions: for V1 selectivity (in words): V1 versus V2 receptor binding; for V1 receptor antagonism compared with OPC-21268 (in words): versus OPC-21268
T1 construct: A rat liver membrane sample was prepared; from tissue; host or cells: rat liver membranes
Procedure: (1) V1 receptor binding assay
A rat liver membrane sample was prepared in accordance with the method of Nakamura et al. (J. Biol. Chem., 258, 9283 (1983)), and [^3 H]-Arg-vasopressin (2 nM, specific activity=75.8 Ci/mmol), 70 μg of the membrane sample and each drug to be tested (10^-8 to 10^-4 M) were incubated at 30° C. for 30 minutes in 250 μl of 100 mM Tris-HCl buffer (pH=8.0) containing 5 mM of magnesium chloride, 1 mM of ethylenediaminetetraacetic acid (EDTA) and 0.1% of bovine serum albumin (BSA). Thereafter, the incubation solution was sucked off using a cell harvester and free ligand and excess buffer were removed by passing the reaction mixture through a glass filter (GF/B), thereby trapping receptor-bound labeled ligand on the glass filter. The glass filter was taken out, thoroughly dried and then mixed with a liquid scintillation cocktail, and the amount of the membrane-bound [^3 H]-vasopressin was measured using a liquid scintillation counter to calculate the inhibition ratio by the following formula. [formula] C1 : amount of [^3 H]-vasopressin bound to the membrane in the coexistence of known amount of each drug to be tested and [^3 H]-vasopressin
C0 : amount of [^3 H]-vasopressin bound to the membrane when the drug to be tested was not added
B1 : amount of [^3 H]-vasopressin bound to the membrane in the presence of excess vasopressin (10^-6 M)
[formula] [L]: concentration of radioactive ligand KD: dissociation constant calculated from Scatchard plot
Negative logarithm of the thus calculated Ki value was used as pKi value.

[2] = target: arginine vasopressin V2 receptor (Oryctolagus cuniculus, UniProt G1TA00); experiment: V2 receptor binding assay ([3H]-Arg-vasopressin, rabbit renal medulla membrane); conditions: rabbit renal medulla membrane, [3H]-Arg-vasopressin 2 nM
[3] = rat liver membrane, [3H]-Arg-vasopressin 2 nM, 30° C., 30 minutes, pH 8.0, read-out: Binding activity on arginine vasopressin V1 receptor (pKi) (converted)

T1 sequence (P30560 whole entry): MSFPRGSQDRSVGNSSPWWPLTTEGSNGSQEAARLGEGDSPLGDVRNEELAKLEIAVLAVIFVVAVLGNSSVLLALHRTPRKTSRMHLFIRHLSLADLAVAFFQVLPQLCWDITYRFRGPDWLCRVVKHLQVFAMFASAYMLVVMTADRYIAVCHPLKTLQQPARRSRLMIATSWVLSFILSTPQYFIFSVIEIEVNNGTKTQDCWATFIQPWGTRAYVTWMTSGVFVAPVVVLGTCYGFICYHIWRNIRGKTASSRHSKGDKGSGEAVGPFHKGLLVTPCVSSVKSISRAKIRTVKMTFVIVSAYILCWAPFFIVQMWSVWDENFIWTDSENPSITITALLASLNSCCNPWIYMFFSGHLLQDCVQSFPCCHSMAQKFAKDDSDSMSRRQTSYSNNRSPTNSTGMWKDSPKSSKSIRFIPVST
Chain of arginine vasopressin V2 receptor (G1TA00 78-446): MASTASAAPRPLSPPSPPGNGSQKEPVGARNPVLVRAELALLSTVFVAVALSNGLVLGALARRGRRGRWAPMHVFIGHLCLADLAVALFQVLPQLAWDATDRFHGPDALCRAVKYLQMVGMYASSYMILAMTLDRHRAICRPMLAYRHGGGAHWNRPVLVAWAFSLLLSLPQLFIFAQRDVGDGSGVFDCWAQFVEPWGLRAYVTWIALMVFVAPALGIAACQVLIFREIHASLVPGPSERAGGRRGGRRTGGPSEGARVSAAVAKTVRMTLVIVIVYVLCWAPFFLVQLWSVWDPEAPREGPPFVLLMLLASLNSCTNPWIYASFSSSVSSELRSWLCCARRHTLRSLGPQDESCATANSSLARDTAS

Row | Structure (SMILES) | Ki [1, 3] | Binding activity on arginine vasopressin V2 receptor (pKi) [2] | Binding activity on arginine vasopressin V1 receptor (pKi) ([1]; rat liver membrane, [3H]-Arg-vasopressin 2 nM, 30° C., 30 minutes, pH 8.0) | V1 selectivity (in words) [1] | V1 receptor antagonism compared with OPC-21268 (in words) [1] | Ki [1]
1 | NC(=O)/C=C1/c2ccccc2N(C(=O)c2ccc(NC(=O)c3ccccc3-c3ccccc3)cc2)CCC1(F)F [Example 121, (Z)-4'-[(5-carbamoylmethylene-4,4-difluoro-2,3,4,5-tetrahydro-1H-1-benzazepin-1-yl]carbonyl]-2-phenylbenzanilide] | 0.295 nM | 8.59 |  |  |  | 
2 | O=C(/C=C1/c2ccccc2N(C(=O)c2ccc(NC(=O)c3ccccc3-c3ccccc3)cc2)CCC1(F)F)NCCO [Example 134, (Z)-4'-[[4,4-difluoro-5-[N-(2-hydroxyethyl)carbamoylmethylene]-4,4-difluoro-2,3,4,5-tetrahydro-1H-1-benzazepin-1-yl]carbonyl]-2-phenylbenzanilide] |  | 8.94 | 9.50 |  |  | 
3 | CC(C)NC(=O)/C=C1/c2ccccc2N(C(=O)c2ccc(NC(=O)c3ccccc3-c3ccccc3)cc2)CCC1(F)F [Example 125, (Z)-4'-[[4,4-difluoro-5-(N-isopropylcarbamoylmethylene)-2,3,4,5-tetrahydro-1H-1-benzazepin-1-yl]carbonyl]-2-phenylbenzanilide] | 0.282 nM | 8.08 |  |  |  | 
4 | O=C(Nc1ccc(C(=O)N2CCC(F)(F)/C(=C\C(=O)N3CCC(N4CCCCC4)CC3)c3ccccc32)cc1)c1ccccc1-c1ccccc1 [Example 83, (Z)-4'-[[4,4-difluoro-5-[[(4-piperidinopiperidino)carbonyl]piperidyl)carbamoyl]methylene]-2,3,4,5-tetrahydro-1H-1-benzazepin-1-yl]carbonyl]-2-phenylbenzanilide hydrochloride] | 0.234 nM | 8.47 |  |  |  | 
5 | CN(C)CC/C=C1\c2ccccc2N(C(=O)c2ccc(NC(=O)c3ccccc3-c3ccccc3)cc2)CCC1(F)F.Cl [Example 82, (E)-4'-[[4,4-difluoro-5-(3-dimethylaminopropylidene)-2,3,4,5-tetrahydro-1H-1-benzazepin-1-yl]carbonyl]-2-phenylbenzanilide hydrochloride] | 2.63 nM | 8.13 |  |  |  | 
6 | CCc1nccn1-c1ccccc1C(=O)Nc1ccc(C(=O)N2CCC(F)(F)/C(=C\C(=O)OC)c3ccccc32)cc1 [Example 42, methyl (Z)-[1-[4-[2-(2-ethyl-1H-imidazol-1yl)benzoyl]amino]benzoyl-4,4-difluoro-2,3,4,5-tetrahydro-1H-1-benzazepin-5-ylidene]acetate] | 1.15 nM | 6.33 |  | excellent in V1 selectivity | markedly stronger V1 receptor antagonism than that of OPC-21268 | 
7 | Cc1ccoc1C(=O)Nc1ccc(C(=O)N2CCC(F)(F)/C(=C\C(=O)N3CCC(N(C)C)CC3)c3ccccc32)cc1 [Example 113, (Z)-N-[4-[[4,4-difluoro-5-[[(4-dimethylaminopiperidino)carbonyl]methylene]-2,3,4,5-tetrahydro-1H-1-benzazepin-1-yl]carbonyl]phenyl]-3-methyl-2-furancarboxyamide hydrochloride] |  | 7.50 |  | excellent in V1 selectivity | markedly stronger V1 receptor antagonism than that of OPC-21268 | 0.263 nM
8 | CN(C)C1CCN(C(=O)/C=C2/c3ccccc3N(C(=O)c3ccc(NC(=O)c4cccc(Cl)c4)cc3)CCC2(F)F)CC1.Cl [Example 96, (Z)-3-chloro-4'-[[4,4-difluoro-5-[[(4-dimethylaminopiperidino)carbonyl]methylene]-2,3,4,5-tetrahydro-1H-1-benzazepin-1-yl]carbonyl]benzanilide hydrochloride] | 2 nM | 8.13 |  |  |  | 
9 | O=C(Nc1ccc(C(=O)N2CCC(F)(F)/C(=C\C(=O)N3CCOCC3)c3ccccc32)cc1)c1ccccc1-c1ccccc1 [Example 133, (Z)-4'-[(4,4-difluoro-5-morpholinocarbonylmethylene-4,4-difluoro-2,3,4,5-tetrahydro-1H-1-benzazepin-1-yl)carbonyl]-2-phenylbenzanilide] | 0.363 nM | 8.28 |  |  |  | 
10 | CN(C)C1CCN(C(=O)/C=C2/c3ccccc3N(C(=O)c3ccc(NC(=O)c4cccn4C)cc3)CCC2(F)F)CC1 [Example 110, (Z)-N-[4-[[4,4-difluoro-5-[[(4-dimethylaminopiperidino)carbonyl]methylene]-2,3,4,5-tetrahydro-1H-1-benzazepin-1-yl]carbonyl]phenyl]-1-methylpyrrole-2-carboxyamide hydrochloride] |  | 7.75 |  |  |  | 0.398 nM
11 | CCc1nccn1-c1ccccc1C(=O)Nc1ccc(C(=O)N2CCC(F)(F)/C(=C\C(=O)NC3CC3)c3ccccc32)cc1 [Example 105, (Z)-4'-[[5-[(N-cyclopropylcarbamoyl)methylene]-4,4-difluoro-2,3,4,5-tetrahydro-1H-1-benzazepin-1-yl]carbonyl]-2-(2-ethyl-1H-imidazol-1-yl) benzanilide] | 0.339 nM | 6.81 |  | excellent in V1 selectivity | markedly stronger V1 receptor antagonism than that of OPC-21268 | 
12 | CCNC(=O)/C=C1/c2ccccc2N(C(=O)c2ccc(NC(=O)c3ccccc3-c3ccccc3)cc2)CCC1(F)F [Example 123, (Z)-4'-[[5-(N-ethylcarbamoylmethylene)-4,4-difluoro-2,3,4,5-tetrahydro-1H-1-benzazepin-1-yl]carbonyl]-2-phenylbenzanilide] | 0.2 nM | 9.16 |  |  |  | 
13 | CN1CCN(C/C=C2/c3ccccc3N(C(=O)c3ccc(NC(=O)c4ccccc4-c4ccccc4)cc3)CCC2(F)F)CC1.Cl.Cl [Example 80, (Z)-4'-[[4,4-difluoro-5-[2-(4-methyl-1-piperazinyl)ethylidene]-2,3,4,5-tetrahydro-1H-1-benzazepin-1-yl]carbonyl]-2-phenylbenzanilide dihydrochloride] | 0.363 nM | 8.50 |  |  |  | 
14 | Cc1ccccc1CC(=O)Nc1ccc(C(=O)N2CCC(F)(F)/C(=C\C(=O)N3CCC(N(C)C)CC3)c3ccccc32)cc1 [Example 106, hydrochloride] | 1.12 nM | 8.24 |  |  |  | 
15 | O=C(/C=C1/c2ccccc2N(C(=O)c2ccc(NC(=O)c3ccccc3-c3ccccc3)cc2)CCC1(F)F)NCc1ccccn1 [Example 14, (Z)-4'-[[4,4-difluoro-5-[N-(2-pyridylmethyl)carbonylmethylene]-2,3,4,5-tetrahydro-1H-1-benzazepin-1-yl]carbonyl]-2-phenylbenzanilide hydrochloride] | 1.23 nM | 9.39 |  |  |  | 
16 | CCc1nccn1-c1ccccc1C(=O)Nc1ccc(C(=O)N2CCC(F)(F)/C(=C\C(N)=O)c3ccccc32)cc1 [Example 103, (Z)-4'-[(5-carbamoylmethylene-4,4-difluoro-2,3,4,5-tetrahydro-1H-1-benzazepin-1-yl]carbonyl]-2-(2-ethyl-1H-imidazol-1-yl)benzanilide] | 2 nM | 6.35 |  | excellent in V1 selectivity | markedly stronger V1 receptor antagonism than that of OPC-21268 | 
17 | Cc1cccc(-c2ccccc2C(=O)Nc2ccc(C(=O)N3CCC(F)(F)/C(=C\C(=O)N4CCN(C)CC4)c4ccccc43)cc2)c1.Cl [Example 19, (Z)-4'-[[4,4-difluoro-5-(4-methyl-1-piperazinyl)carbonylmethylene-2,3,4,5-tetrahydro-1H-1-benzazepin-1-yl]carbonyl]-2-(3-methylphenyl)benzanilide hydrochloride] | 2.63 nM | 8.84 |  |  |  | 
18 | CN1CCC(N(C)C(=O)/C=C2/c3ccccc3N(C(=O)c3ccc(NC(=O)c4ccccc4-c4ccccc4)cc3)CCC2(F)F)CC1 [Example 84, (Z)-4'-[[4,4-difluoro-5-[[N-methyl-N-(1-methyl-4-piperidyl)carbamoyl]methylene]-2,3,4,5-tetrahydro-1H-1-benzazepin-1-yl]carbonyl]-2-phenylbenzanilidehydrochloride] | 0.102 nM |  |  |  |  | 
